# Reference: patent US6066310A, “Diagnostic and therapeutic method for tumor using radiolabeled avidin” (Nihon Medi-Physics Co., Ltd., priority 1997, dated 2000)
# Where two headings read alike, the source gives them in different places.
# Conditions: 2 hours after biotin, LS180 xenografted mice
# Description: LS 180-tumor xenografted mice received injection with 300 μg unlabeled avidin and 1-24 hours later injection with 0.3 μg In-111 labeled biotin. […] After 2 hours from the injection of biotin, 4-5 mice per group were sacrificed and measured for distribution of radioactivity.
# [1] = biotin 1 hr after pre-targeting of avidin
# [2] = biotin 4 hr after pre-targeting of avidin
# [3] = biotin 8 hr after pre-targeting of avidin
# [4] = biotin 24 hr after pre-targeting of avidin
# [5] = without pre-targeting of avidin
smiles,measurement,setting,value
O=C([O-])CN(CCN(CC(=O)[O-])CC(=O)NC(CCCCNC(=O)CCCCC1SCC2NC(=O)NC21)C(=O)O)CCN(CC(=O)[O-])CC(=O)NC(CCCCNC(=O)CCCCC1SCC2NC(=O)NC21)C(=O)O.[111In+3] (stereo not drawn) [radiolabeled biotin],Tumor/Blood ratio of radioactivity,[1],160.3 ± 26.9
same,Tumor/Bone ratio of radioactivity,[1],60.7 ± 13.7
same,Tumor/Kidney ratio of radioactivity,[1],3.48 ± 0.94
same,Tumor/Liver ratio of radioactivity,[1],4.19 ± 1.45
same,Tumor/Spleen ratio of radioactivity,[1],5.14 ± 2.58
same,radioactivity per 1 g of organ: Blood,[1],0.38 ± 0.08
same,radioactivity per 1 g of organ: Bone,[1],0.99 ± 0.08
same,radioactivity per 1 g of organ: Intestine,[1],1.03 ± 0.30
same,radioactivity per 1 g of organ: Kidney,[1],17.44 ± 2.16
same,radioactivity per 1 g of organ: Liver,[1],14.77 ± 2.84
same,radioactivity per 1 g of organ: Lung,[1],1.07 ± 0.91
same,radioactivity per 1 g of organ: Muscle,[1],0.10 ± 0.06
same,radioactivity per 1 g of organ: Spleen,[1],12.85 ± 4.02
same,radioactivity per 1 g of organ: Stomach,[1],3.24 ± 0.63
same,radioactivity per 1 g of organ: Tumor,[1],59.28 ± 9.89
same,Tumor/Blood ratio of radioactivity,[2],159.0 ± 50.9
same,Tumor/Bone ratio of radioactivity,[2],107.3 ± 79.1
same,Tumor/Kidney ratio of radioactivity,[2],12.26 ± 2.75
same,Tumor/Liver ratio of radioactivity,[2],20.89 ± 5.43
same,Tumor/Spleen ratio of radioactivity,[2],22.03 ± 9.18
same,radioactivity per 1 g of organ: Blood,[2],0.25 ± 0.03
same,radioactivity per 1 g of organ: Bone,[2],0.60 ± 0.45
same,radioactivity per 1 g of organ: Intestine,[2],0.27 ± 0.06
same,radioactivity per 1 g of organ: Kidney,[2],3.30 ± 0.94
same,radioactivity per 1 g of organ: Liver,[2],1.92 ± 0.58
same,radioactivity per 1 g of organ: Lung,[2],0.32 ± 0.11
same,radioactivity per 1 g of organ: Muscle,[2],0.32 ± 0.22
same,radioactivity per 1 g of organ: Spleen,[2],2.14 ± 1.24
same,radioactivity per 1 g of organ: Stomach,[2],1.08 ± 0.44
same,radioactivity per 1 g of organ: Tumor,[2],39.31 ± 11.3
same,Tumor/Blood ratio of radioactivity,[3],52.6 ± 23.9
same,Tumor/Bone ratio of radioactivity,[3],59.22 ± 35.9
same,Tumor/Kidney ratio of radioactivity,[3],7.18 ± 2.66
same,Tumor/Liver ratio of radioactivity,[3],48.14 ± 20.2
same,Tumor/Spleen ratio of radioactivity,[3],40.87 ± 15.0
same,radioactivity per 1 g of organ: Blood,[3],0.20 ± 0.03
same,radioactivity per 1 g of organ: Bone,[3],0.20 ± 0.07
same,radioactivity per 1 g of organ: Intestine,[3],0.11 ± 0.02
same,radioactivity per 1 g of organ: Kidney,[3],1.41 ± 0.29
same,radioactivity per 1 g of organ: Liver,[3],0.21 ± 0.04
same,radioactivity per 1 g of organ: Lung,[3],0.19 ± 0.10
same,radioactivity per 1 g of organ: Muscle,[3],0.06 ± 0.03
same,radioactivity per 1 g of organ: Spleen,[3],0.26 ± 0.13
same,radioactivity per 1 g of organ: Stomach,[3],0.13 ± 0.09
same,radioactivity per 1 g of organ: Tumor,[3],10.49 ± 5.16
same,Tumor/Blood ratio of radioactivity,[4],9.72 ± 2.07
same,Tumor/Bone ratio of radioactivity,[4],9.42 ± 2.29
same,Tumor/Kidney ratio of radioactivity,[4],1.39 ± 0.40
same,Tumor/Liver ratio of radioactivity,[4],11.20 ± 3.77
same,Tumor/Spleen ratio of radioactivity,[4],14.75 ± 5.59
same,radioactivity per 1 g of organ: Blood,[4],0.15 ± 0.07
same,radioactivity per 1 g of organ: Bone,[4],0.17 ± 0.13
same,radioactivity per 1 g of organ: Intestine,[4],1.18 ± 1.35
same,radioactivity per 1 g of organ: Kidney,[4],1.01 ± 0.23
same,radioactivity per 1 g of organ: Liver,[4],0.13 ± 0.02
same,radioactivity per 1 g of organ: Lung,[4],0.13 ± 0.06
same,radioactivity per 1 g of organ: Muscle,[4],0.12 ± 0.16
same,radioactivity per 1 g of organ: Spleen,[4],0.10 ± 0.01
same,radioactivity per 1 g of organ: Stomach,[4],1.49 ± 1.61
same,radioactivity per 1 g of organ: Tumor,[4],1.45 ± 0.70
same,Tumor/Blood ratio of radioactivity,[5],5.78 ± 2.44
same,Tumor/Bone ratio of radioactivity,[5],5.97 ± 3.51
same,Tumor/Kidney ratio of radioactivity,[5],0.55 ± 0.22
same,Tumor/Liver ratio of radioactivity,[5],3.90 ± 1.32
same,Tumor/Spleen ratio of radioactivity,[5],3.94 ± 1.79
same,radioactivity per 1 g of organ: Blood,[5],0.12 ± 0.03
same,radioactivity per 1 g of organ: Bone,[5],0.25 ± 0.34
same,radioactivity per 1 g of organ: Intestine,[5],0.49 ± 0.46
same,radioactivity per 1 g of organ: Kidney,[5],1.23 ± 0.21
same,radioactivity per 1 g of organ: Liver,[5],0.17 ± 0.05
same,radioactivity per 1 g of organ: Lung,[5],0.14 ± 0.05
same,radioactivity per 1 g of organ: Muscle,[5],0.20 ± 0.27
same,radioactivity per 1 g of organ: Spleen,[5],0.18 ± 0.05
same,radioactivity per 1 g of organ: Stomach,[5],0.12 ± 0.03
same,radioactivity per 1 g of organ: Tumor,[5],0.70 ± 0.35
